Entries after “also recorded” stand apart in the source; their conditions may differ.
What was measured:
peritoneal macrophages [1] = test: IL-12-mediated nitric oxide production by macrophages treated in vitro; assay type: cell-based, mice; details: in vitro treatment of macrophages, 50 mM AG-490
Description: Nitric oxide production. Peritoneal macrophages (2×10^5/0.2 ml/well) from mice with various treatments are incubated 48 hours. Nitrite accumulation in macrophage supernatants were determined using Griess reagent.
In vitro IL-12 activation and AG-490 treatment of macrophages. Peritoneal macrophages (2×10^5/well) are incubated in medium supplemented with either PBS, or rIL-12 (2 ng/ml), or AG-490 ([…]). Forty-eight hours later, the cultures are renewed by addition of fresh medium with either AG-490 or rIL-12 or PBS. Activation of macrophages is determined by nitric oxide production. Macrophage viability is determined by cleavage of tetrazolium salt in an MTT assay.

peritoneal macrophages [2] = test: Cytostatic activity of peritoneal macrophages against J558 myeloma cells; set-up: species or system mice; details: daily i.p. in vivo treatment
Description: Peritoneal macrophage preparation and cytostatic test. […] The peritoneal macrophage population is enriched by adhesion on plastic plates followed by washing and aspiration of non-adherent cells. The percentage of macrophages among adherent cells is estimated by morphological criteria using Giemsa staining (>95%). Antitumor cytostatic activity of macrophages is determined by inhibition of DNA synthesis of target tumor cells (J558 myeloma cells). Briefly, macrophage-sensitive J558 cells (2×10^4/well) are co-cultured for 48 hours with and without macrophages (2×10^5/well) prepared from individual mice. To estimate DNA synthesis, the cells are pulsed with ^3H-thymidine (^3H-TdR) ([…]) during the last 6 hours of incubation. ^3H-TdR incorporation is determined using a liquid scintillation b-counter (Pharmacia Wallac, Finland). Results are expressed as percentage of inhibition of ^3H-TdR incorporation by J558 cells incubated with macrophages compared to ^3H-TdR incorporation by J558 cells incubated in medium alone.

STAT3 = test: EMSA of constitutive STAT3 DNA-binding activity in MDA-MB-468 breast carcinoma cells; assay type: cell-based, human; details: MDA-MB-468 cells; dose-dependent
Description: FIG. 6: Src and JAK Inhibitors Block Growth and STAT3 Activation in Breast Carcinoma Cells. MDA-MD-468 cells are treated with inhibitors of EGF receptor (PD158780), Src (PD180970), or JAKs (AG490), and effects on cell growth (Panel A) and STAT3 DNA-binding activity (Panel B) are determined.
STAT DNA-binding activity in human breast cancer cell lines is examined by electrophoretic mobility shift assays (EMSA) (Garcia et al., 1997, Cell Growth Diff. 8:1267-1276). In these experiments, EMSAs are performed using the ^32P-labeled sis-inducible element (SIE) as a probe to detect STAT DNA-binding activity in nuclear extracts of cells. This synthetic DNA oligonucleotide probe is a high-affinity mutant of the c-fos SIE, called hSIE, that binds both STAT1 and STAT3 (Yu, et al., 1995, Science 269:81-83). […] This activation is constitutive and occurs in the absence of exogenous EGF stimulation. By contrast, STAT3 activation is not detected in any of the three cell lines derived from normal breast tissue.
The involvement of these, and other, tyrosine kinases in STAT3 activation is tested using specific inhibitors of JAK family kinases, and the EGF receptor and Src family kinases.

MPC11 tumors = test: MPC11 myeloma tumor growth in vivo; set-up: species or system BALB/c mice
Description: Mice and tumor formation in vivo. Six- to eight-week old female BALB/c mice are obtained from the National Cancer Institute (Frederick, Md.). Cohorts of 3-5 mice per group are used for these experiments. Mice are shaved on the right flank and injected subcutaneously (s.c.) with 5×10^5 of either MOPC or MPC11 cells in […] of PBS to induce tumors.
In vivo treatment with AG-490 and IL-12. When tumors reach about 5 […] in diameter, AG-490 treatment of tumors is initiated and continued daily for 7-10 days. For MOPC tumors, injections of 0.85 mg/day of AG-490 are given intratumorally, supplemented with 0.5 mg/day of AG-490 i.p. For MPC11 tumors, the intratumoral treatment is halved while the i.p. dose remains the same. Control mice receive 50% DMSO vehicle alone in the same volume as the AG-490 treatment group. Recombinant IL-12 is given s.c. at either 100 ng or 200 ng every other day. Tumor growth is monitored daily by measuring two perpendicular tumor diameters with a caliper, and tumor volume was calculated according to the formula V=0.52*a*b(a+b)/2 (a=smallest superficial diameter; b=largest superficial diameter).

Bcl-xL = Bcl-xL expression (RT-PCR, Western blot) in U266 cells; assay type: cell-based, human; set-up: dose or concentration left out as unconfirmed
Description: Cells are lysed in a buffer composed of 50 mM Tris-Cl, pH 7.4, 5 mM EDTA, 150 mM NaCl, and 0.5% Triton-X 100 containing 1 mg/ml leupeptin and aprotinin, and 1 mM PMSF. Protein content of the cell lysates is quantified by the Bradford assay (Bio-Rad), and […] total protein is dissolved in Laemmli SDS-PAGE sample buffer prior to separation by 10% SDS-PAGE. Proteins are transferred to PVDF membrane and Western blot analysis is performed by standard techniques with ECL detection (Amersham). The Bcl-xL antibody, clone 124 (Dako), is used at a 1:2000 dilution. The Bcl-xL, antibody, clone S-18 (Santa Cruz Biotechnology), is used at a 1:500 dilution. Blots are quantified by densitometry and expression levels were normalized to b-actin (Sigma).
Total RNA is isolated by lysis in guanidine isothiocyanate followed by centrifugation through a cesium chloride gradient. cDNA is prepared from 200 ng of total RNA in a […] reaction with AMV-RT (Boehringer-Mannheim). […] Tem ml of PCR products are electrophoresed on a 5% acrylamide gel and quantified by phosphorimaging using ImageQuant software (Molecular Dynamics).

[3] = set-up: species or system mice; details: mouse, in vivo
Description: FIG. 7: AG490 Blocks Tumorigenicity of Breast Carcinoma Cells. Nude mice are engrafted with MDA-MB-468 tumor cells, and then treated with AG490 by mini-pump infusion (42 mpk) and daily intraperitoneal injections (50 mpk).
AG490 is administered by continuous infusion using subcutaneous mini-pumps supplemented with intraperitoneal injections.

## N#C/C(=C\c1ccc(O)c(O)c1)C(=O)NCc1ccccc1 [AG490]
Peritoneal macrophages [1]
  IL-12-mediated nitric oxide production: prevents or suppressed
Peritoneal macrophages [2]
  IL-12-induced cytostatic activity of peritoneal macrophages against target tumor cells: does not influence
STAT3
  constitutive STAT3 activation (STAT3 DNA-binding activity): effectively blocked
MPC11 tumors; MPC11 tumors
  time to tumor regrowth or metastasis after termination of treatment: 4 to 7 days
MPC11 tumors; pre-existing MPC11 tumors, all treated mice
  MPC11 tumor response: rapid rejection; also recorded: all of the tumors in AG-490-treated mice regressed
Bcl-xL; AG490, 24 hours
  bcl-x mRNA expression: significant reduction
Bcl-xL; AG490, 30 hours
  Bcl-xL protein levels: nearly absent
[3]
  toxicity in animals: not detectably toxic
